Assay results as given in ChEMBL document CHEMBL1149280, “Highly selective fluorescent analogue of the potent delta-opioid receptor antagonist Dmt-Tic” (J Med Chem, 2004).
Where a SMILES comes first, the peptide text is derived from it.

Columns and labels:
Mu-type opioid receptor [1] = biological target: Mu-type opioid receptor (Cavia porcellus, UniProt P97266); test: Agonistic activity at mu opioid receptor in guinea pig ileum assessed as inhibition of electrically evoked twitch; format: functional, tissue-based
[2] = biological target: Opioid receptors; mu & delta (Rattus norvegicus) (UniProt P33533+P33535); test: Selectivity of rat brain delta opioid receptor over rat brain mu opioid receptor
[3] = biological target: Delta-type opioid receptor (Mus musculus, UniProt P32300); test: Agonistic activity at delta opioid receptor in mouse vas deferens assessed as inhibition of electrically evoked twitch; format: functional, tissue-based
[4] = biological target: Delta-type opioid receptor (Rattus norvegicus, UniProt P33533); test: Displacement of [3H]DPDPE from delta opioid receptor in rat brain synaptosomes P2 fraction; format: subcellular
Mu-type opioid receptor [5] = biological target: Mu-type opioid receptor (Rattus norvegicus, UniProt P33535); test: Displacement of [3H]DAMGO from mu opioid receptor in rat brain synaptosomes P2 fraction; format: subcellular
[6] = biological target: Delta-type opioid receptor (Mus musculus) (UniProt P32300); test: Antagonist activity at delta opioid receptor in mouse vas deferens assessed as effect on electrically evoked twitch; format: functional, tissue-based; conditions: filed as antagonist
Delta-type opioid receptor (Mus musculus), sequence (P32300 whole entry): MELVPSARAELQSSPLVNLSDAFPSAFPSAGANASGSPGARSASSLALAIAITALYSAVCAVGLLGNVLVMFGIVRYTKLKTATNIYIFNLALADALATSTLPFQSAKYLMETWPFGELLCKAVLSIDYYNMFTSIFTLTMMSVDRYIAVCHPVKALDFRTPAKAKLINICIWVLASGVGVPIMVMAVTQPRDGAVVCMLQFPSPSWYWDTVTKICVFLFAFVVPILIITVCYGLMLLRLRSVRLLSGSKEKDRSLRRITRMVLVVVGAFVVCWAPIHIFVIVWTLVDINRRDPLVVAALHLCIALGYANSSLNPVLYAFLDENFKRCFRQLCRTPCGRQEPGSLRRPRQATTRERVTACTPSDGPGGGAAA

Mu-type opioid receptor (Cavia porcellus, UniProt P97266), sequence (P97266 whole entry): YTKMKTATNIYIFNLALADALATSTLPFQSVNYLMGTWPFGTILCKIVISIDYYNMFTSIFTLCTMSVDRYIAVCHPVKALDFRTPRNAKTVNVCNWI
Opioid receptors; mu & delta (Rattus norvegicus), sequence (P33533 whole entry, looked up): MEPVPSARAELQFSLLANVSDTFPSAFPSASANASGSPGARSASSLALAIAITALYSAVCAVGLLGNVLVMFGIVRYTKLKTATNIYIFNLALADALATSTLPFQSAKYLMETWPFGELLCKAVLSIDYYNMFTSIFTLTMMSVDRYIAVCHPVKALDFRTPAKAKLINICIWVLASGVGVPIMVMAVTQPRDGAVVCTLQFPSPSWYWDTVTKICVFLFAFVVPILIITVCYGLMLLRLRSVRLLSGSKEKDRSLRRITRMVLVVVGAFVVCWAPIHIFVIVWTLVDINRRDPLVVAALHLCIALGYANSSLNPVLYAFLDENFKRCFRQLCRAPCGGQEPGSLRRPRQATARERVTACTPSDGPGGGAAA
Opioid receptors; mu & delta (Rattus norvegicus), sequence (P33535 whole entry, looked up): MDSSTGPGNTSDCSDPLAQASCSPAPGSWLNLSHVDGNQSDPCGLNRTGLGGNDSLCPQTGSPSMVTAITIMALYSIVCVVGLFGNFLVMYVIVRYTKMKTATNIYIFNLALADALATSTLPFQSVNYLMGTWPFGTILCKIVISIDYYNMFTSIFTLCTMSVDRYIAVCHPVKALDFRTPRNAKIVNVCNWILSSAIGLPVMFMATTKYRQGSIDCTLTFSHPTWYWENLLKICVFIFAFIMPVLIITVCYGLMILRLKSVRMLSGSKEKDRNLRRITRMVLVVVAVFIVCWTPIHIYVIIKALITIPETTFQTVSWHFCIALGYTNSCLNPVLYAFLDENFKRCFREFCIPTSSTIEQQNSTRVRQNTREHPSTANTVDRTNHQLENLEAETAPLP
Delta-type opioid receptor (Mus musculus, UniProt P32300), sequence (P32300 whole entry): as the sequence (P32300 whole entry) above
Delta-type opioid receptor (Rattus norvegicus, UniProt P33533), sequence (P33533 whole entry): as the sequence (P33533 whole entry, looked up) above
Mu-type opioid receptor (Rattus norvegicus, UniProt P33535), sequence (P33535 whole entry): as the sequence (P33535 whole entry, looked up) above

## Cc1cc(O)cc(C)c1C[C@H](N)C(=O)N1Cc2ccccc2C[C@H]1C(=O)N[C@@H](CCC(=O)O)C(=O)NCCCCCN
Mu-type opioid receptor [1]
  IC50: > 1000 nM

## Cc1cc(O)cc(C)c1C[C@H](N)C(=O)N1Cc2ccccc2CC1C(=O)N[C@@H](CCC(=O)O)C(=O)NCCCCCN (stereo not given in full)
[2]
  Ratio Ki: 1700

## Cc1cc(O)cc(C)c1C[C@H](N)C(=O)N1Cc2ccccc2C[C@H]1C(=O)N[C@@H](CCC(=O)O)C(N)=O (HELM PEPTIDE1{[Cc1cc(O)cc(C)c1C[C@H](N)C(=O)[*:2]].[Tic].E.[am]}$$$$V2.0)
[3]
  IC50: 2.58 nM (agonist)
[4]
  Ki: 0.06 nM (antagonist)
Mu-type opioid receptor [5]
  Ki: 1360 nM (antagonist)
[2]
  Ratio Ki: 22600
Mu-type opioid receptor [1]
  IC50: > 1000 nM

## Cc1cc(O)cc(C)c1C[C@H](N)C(=O)N1Cc2ccccc2CC1C(=O)N[C@@H](CCC(=O)O)C(=O)NCCCCCNC(=S)Nc1ccc(-c2c3ccc(=O)cc-3oc3cc(O)ccc23)c(C(=O)O)c1 (stereo not given in full)
[2]
  Ratio Ki: 4370
[6]
  Activity: Irreversible Antagonist

## Cc1cc(O)cc(C)c1C[C@H](N)C(=O)N1Cc2ccccc2C[C@H]1C(=O)N[C@@H](CCC(=O)O)C(=O)NCCCCCNC(=S)Nc1ccc(-c2c3ccc(=O)cc-3oc3cc(O)ccc23)c(C(=O)O)c1
Mu-type opioid receptor [1]
  IC50: > 1000 nM
